From patent publication US8846570B2, “Herbicidal compositions comprising 4-amino-3-chloro-5-fluoro-6-(4-chloro-2-fluoro-3-methoxyphenyl)pyridine-2-carboxylic acid or a derivative thereof and microtubule inhibiting herbicides” (Dow AgroSciences LLC, priority 2012, dated 2014) come the findings set out here.

What all share (type): in vivo
Assay [1] relates to Stellaria media (L.) Vill. (STEME). Kind of assay: Postemergence foliar-applied, cereal crops, greenhouse: visual weed control. As to conditions: 21 DAA. Here is the method: (§1) Seeds of the desired test plant species were planted in Sun Gro MetroMix® 306 planting mixture, which typically has a pH of 6.0 to 6.8 and an organic matter content of about 30 percent, in plastic pots with a surface area of 103.2 square centimeters (cm^2). When required to ensure good germination and healthy plants, a fungicide treatment and/or other chemical or physical treatment was applied. The plants were grown for 7-36 days in a greenhouse with an approximate 14 hour photoperiod which was maintained at about 18° C. during the day and about 17° C. during the night. Nutrients and water were added on a regular basis and supplemental lighting was provided with overhead metal halide 1000-Watt lamps as necessary. The plants were employed for testing when they reached the second or third true leaf stage.
(§2) Treatments consisted of the benzyl ester of 4-amino-3-chloro-5-fluoro-6-(4-chloro-2-fluoro-3-methoxy-phenyl)pyridine-2-carboxylic acid (Compound A), formulated as an SC, a second cereal herbicide alone and then both in combination.
(§3) Other herbicidal components were applied on an active ingredient basis and included microtubule-inhibiting herbicides.
(§4) Measured aliquots of benzyl ester of 4-amino-3-chloro-5-fluoro-6-(4-chloro-2-fluoro-3-methoxy-phenyl)pyridine-2-carboxylic acid (Compound A) were placed in 25 milliliter (mL) glass vials and diluted in a volume of 1.25% (v/v) Agri-Dex® crop oil concentrate to obtain stock solutions. Compound requirements are based upon a 12 mL application volume at a rate of 187 liters per hectare (L/ha). Spray solutions of the second cereal herbicide and experimental compound mixtures were prepared by adding the stock solutions to the appropriate amount of dilution solution to form 12 mL spray solution with active ingredients in two- and three-way combinations. Formulated compounds were applied to the plant material with an overhead Mandel track sprayer equipped with an 8002E nozzle calibrated to deliver 187 L/ha over an application area of 0.503 square meters (m^2) at a spray height of 18 inches (46 cm) above average plant canopy. Control plants were sprayed in the same manner with the solvent blank.
(§5) The treated plants and control plants were placed in a greenhouse as described above and watered by sub-irrigation to prevent wash-off of the test compounds. After 20-22 days, the condition of the test plants as compared with that of the control plants was determined visually and scored on a scale of 0 to 100 percent where 0 corresponds to no injury and 100 corresponds to complete kill.
(§6) Colby's equation was used to determine the herbicidal effects expected from the mixtures (Colby, S. R. 1967. Calculation of the synergistic and antagonistic response of herbicide combinations. Weeds 15:20-22.).
(§7) The following equation was used to calculate the expected activity of mixtures containing two active ingredients, A and B: Expected=A+B−(A×B/100)

The subject of assay [2] is Papaver rhoeas L. (PAPRH). The assay is described as above. As to conditions: 21 DAA. How it is done: as §1, §2, §3, §4, §5, §6, §7
The test system of assay [3] is Sinapis arvensis L. (SINAR). Described as above. Particulars: 21 DAA. How it is done: as §1, §2, §3, §4, §5, §6, §7
The test system of assay [4] is Lamium purpureum L. (LAMPU). Described as above. Particulars: 21 DAA. Here is the method:
as §1, §2, §3, §4, §5, §6, §7

Assay [5] concerns Amaranthus retroflexus L. (AMARE). The assay is described as above. Particulars: 21 DAA. Here is the method:
as §1, §2, §3, §4, §5, §6, §7

For assay [6], the system named is Chenopodium album L. (CHEAL). The description is as above. As to conditions: 21 DAA. Here is the method:
as §1, §2, §3, §4, §5, §6, §7

Assay [7] relates to Cirsium arvense (L.) Scop. (CIRAR). The assay is described as above. Particulars: 21 DAA. Here is the method:
as §1, §2, §3, §4, §5, §6, §7

In assay [8] the test system is Kochia scoparia (L.) Schrad. (KCHSC). The assay is described as above. As to conditions: 21 DAA. How it is done: as §1, §2, §3, §4, §5, §6, §7
The subject of assay [9] is Cyperus rotundus L. (CYPRO). Kind of assay: In-water applied, transplanted paddy rice, greenhouse: visual weed control. Here is the method: Weed seeds or nutlets of the desired test plant species were planted in puddled soil (mud) prepared by mixing a shredded, non-sterilized mineral soil (50.5 percent silt, 25.5 percent clay, and 24 percent sand, with a pH of about 7.6 and an organic matter content of about 2.9 percent) and water at a 1:1 volumetric ratio. The prepared mud was dispensed in 365 mL aliquots into 16-ounce (oz.) non-perforated plastic pots with a surface area of 86.59 square centimeters (cm^2) leaving a headspace of 3 centimeters (cm) in each pot. Mud was allowed to dry overnight prior to planting or transplanting. Rice seeds were planted in Sun Gro MetroMix® 306 planting mixture, which typically has a pH of 6.0 to 6.8 and an organic matter content of about 30 percent, in plastic plug trays. Seedlings at the second or third leaf stage of growth were transplanted into 860 mL of mud contained in 32-oz. non-perforated plastic pots with a surface area of 86.59 cm^2 4 days prior to herbicide application. The paddy was created by filling the headspace of the pots with 2.5 to 3 cm of water. […] Nutrients were added as Osmocote® (19:6:12, N:P:K+minor nutrients) at 2 g per 16.-oz. pot and 4 g per 32-oz. pot. Water was added on a regular basis to maintain the paddy flood, and supplemental lighting was provided with overhead metal halide 1000-Watt lamps as necessary. The plants were employed for testing when they reached the first through fourth true leaf stage.
Forms of compound A were applied on an acid equivalent basis.
For formulated compounds, a measured amount was placed in an individual 100 or 200 mL glass vial and was dissolved in a volume of 1.25% (v/v) Agri-Dex® crop oil concentrate to obtain application solutions.
For technical grade compounds, a weighed amount was placed in an individual 100 to 200 mL glass vial and was dissolved in a volume of acetone to obtain concentrated stock solutions. […] The concentrated stock solutions obtained were diluted with an equivalent volume of an aqueous mixture containing 2.5% (v/v) crop oil concentrate so that the final application solutions contained 1.25% (v/v) crop oil concentrate.
Applications were made by injecting, with a pipetter, appropriate amounts of the application solutions into the aqueous layer of the paddy. Control plants were treated in the same manner with the solvent blank. Applications were made so that all treated plant material received the same concentrations of acetone and crop oil concentrate.
The treated plants and control plants were placed in a greenhouse as described above and water was added as needed to maintain a paddy flood. After approximately 3 weeks the condition of the test plants as compared with that of the untreated plants was determined visually and scored on a scale of 0 to 100 percent where 0 corresponds to no injury or growth inhibition and 100 corresponds to complete kill.
as §6, §7

Each structure is given as a SMILES string.

`CCC(CC)Nc1c([N+](=O)[O-])cc(C)c(C)c1[N+](=O)[O-]` [Pendimethalin, N-(1-ethylpropyl)-3,4-dimethyl-2,6-dinitrobenzenamine, reference compound]: the “Visual Weed Control (%) Obs” value was 3% in assay [1] (150 g ai/ha); 5% in assay [1] (300 g ai/ha); 17% in [1] (600 g ai/ha); 18% in assay [2] (150 g ai/ha); 38% in assay [2] (300 g ai/ha); 75% in [2] (600 g ai/ha). Also, the “Visual Weed Control (%) Obs” value in [3] (150 g ai/ha) was 3%; in assay [3] (300 g ai/ha), 5%; in assay [4] (150 g ai/ha) it was 0%; in assay [4] (300 g ai/ha), 25%; in assay [4] (600 g ai/ha), 53%; in assay [5] (150 g ai/ha), 3%. Besides, the “Visual Weed Control (%) Obs” value in assay [5] (300 g ai/ha) stood at 5%; in assay [6] (150 g ai/ha), 0%; in assay [6] (300 g ai/ha), 0%; in assay [7] (150 g ai/ha), 10%; in assay [7] (300 g ai/ha) it was 10%; in assay [7] (600 g ai/ha) it was 10%. The “Visual Weed Control (%) Obs” value in [8] (150 g ai/ha) stood at 10%; in assay [8] (300 g ai/ha) it was 10%; in assay [8] (600 g ai/ha), 57%; in assay [9] (21 DAA, 280 g ai/ha), 0%; in assay [9] (21 DAA, 560 g ai/ha) it was 0%.
Regarding `COc1c(Cl)ccc(-c2nc(C(=O)OCc3ccccc3)c(Cl)c(N)c2F)c1F` [Compound A Benzyl Ester, benzyl ester of 4-amino-3-chloro-5-fluoro-6-(4-chloro-2-fluoro-3-methoxy-phenyl)pyridine-2-carboxylic acid], the “Visual Weed Control (%) Obs” value in [1] (2.5 g ai/ha) is on record as 25%; in assay [1] (5 g ai/ha), 25%; in assay [1] (10 g ai/ha) it was 27%; in assay [2] (2.5 g ai/ha) it was 48%; in assay [2] (5 g ai/ha), 28%; in assay [2] (10 g ai/ha), 35%. In addition, the “Visual Weed Control (%) Obs” value is 70% in assay [3] (2.5 g ai/ha); 73% in assay [3] (5 g ai/ha); 80% in assay [4] (2.5 g ai/ha); 86% in [4] (5 g ai/ha); 94% in [4] (10 g ai/ha); 20% in [5] (2.5 g ai/ha). Moreover, the “Visual Weed Control (%) Obs” value in assay [5] (5 g ai/ha) amounted to 38%; in assay [6] (2.5 g ai/ha), 50%; in assay [6] (5 g ai/ha), 58%; in assay [7] (2.5 g ai/ha) it was 48%; in [7] (5 g ai/ha), 39%; in assay [7] (10 g ai/ha), 60%. Moreover, the “Visual Weed Control (%) Obs” value was determined as 20% in assay [8] (2.5 g ai/ha); 41% in assay [8] (5 g ai/ha); 62% in assay [8] (10 g ai/ha); 50% in [9] (20 DAA, 4.38 g ae/ha); 0% in assay [9] (20 DAA, 8.75 g ae/ha); 90% in assay [9] (20 DAA, 17.5 g ae/ha). The “Visual Weed Control (%) Obs” value in assay [9] (21 DAA, 8.75 g ae/ha) is 0%; in [9] (21 DAA, 17.5 g ae/ha), 0%.
On to `COc1c(Cl)ccc(-c2nc(C(=O)O)c(Cl)c(N)c2F)c1F` [Compound A Acid, 4-amino-3-chloro-6-(4-chloro-2-fluoro-3-methoxyphenyl)-5-fluoropyridine-2-carboxylic acid], for which the “Visual Weed Control (%) Obs” value in assay [9] (20 DAA, 10.6 g ae/ha) was 10%; in assay [9] (20 DAA, 21.2 g ae/ha), 20%.
